Assay results published in US9701676B2, “Pro-neurogenic compounds” (Board of Regents of The University of Texas System, priority 2012, dated 2017).

System: proliferating neural precursor cells in the hippocampus (subgranular layer of the dentate gyrus)
Assay: standard in vivo hippocampal neurogenesis assay (BrdU labelling, week-long intracranial mini-pump infusion)
Design: species or system mouse (C57/B6)
Details: 10 μM concentration, seven days of infusion at 0.5 μL/hour, daily IP BrdU; four 12 week old adult male C57/B6 mice; vehicle 14.5
Procedure: Compounds were administered at a concentration of 10 μM for each molecule. After seven days of infusion at a constant rate of 0.5 μL/hour, a total of 84 μL of volume will have left the pump (0.00084 μMoles) and entered the cerebrospinal fluid. The average volume of a brain from a 12 week old male, C57/B6 mouse in the study is 500 mm^3. […] Under these conditions, at the end of one week of infusion each compound would be present at 1.7 μMolar concentration. Since the actual amount of chemical compound in the brain is likely to be only a fraction of this predicted level, it is reasonable to estimate that compounds were administered at mid to low-nanomolar concentrations.
During compound infusion, animals were intraperitoneally (IP) injected daily with the thymidine analog, bromodeoxyuridine (BrdU), as a means of scoring the birth and survival of proliferating neural precursor cells in the hippocampus. Because both social interaction and voluntary exercise are known to stimulate hippocampal neurogenesis, mice were housed individually without access to running wheels throughout the screening period. Following the week-long period of compound administration, animals were perfused and sacrificed. Dissected brain tissue was fixed, embedded, sectioned, stained with antibodies to BrdU, and evaluated by light microcopy as a means of quantifying neurogenesis and survival of newborn neural precursor cells localized to the subgranular layer of the dentate gyms on the brain hemisphere contralateral to the side of mini-pump cannulation. Every fifth section throughout the entire rostral-caudal extent of the hippocampus was analyzed, and the total number of BrdU+ cells was normalized against the measured volume of the dentate gyms.
Intracranial infusions of either fibroblast growth factor 2 (FGF-2) or artificial cerebral spinal fluid (aCSF) vehicle via the same, week-long protocol were employed as positive and negative controls.
Compounds were evaluated for pro-neurogenic efficacy/neuroprotection in a standard in vivo hippocampal neurogenesis assay at 10 μM concentration in four 12 week old adult male C57/B16 mice.

SMILES | (×10^−06) BrdU+ cells/mm^3 dentate gyrus
NC(Cc1c[nH]c2ccc(Br)cc12)C(=O)O (racemic) [P7C3-S207, 5-bromo-DL-tryptophan, reference compound] | 32.4 (×10^−06) BrdU+ cells/mm^3
COc1cccc(NCC(O)CN2c3ccc(Br)cc3CCc3cc(Br)ccc32)c1 (centres unmarked) [P7C3-S76] | 28.3 (×10^−06) BrdU+ cells/mm^3
OC(CN1c2ccccc2CCc2ccccc21)Cn1ccc2ccccc21 (centres unmarked) [P7C3-S132, 1-(10,11-dihydro-5H-dibenzo[b,f]azepin-5-yl)-3-(1H-indol-1-yl)propan-2-ol] | 22.8 (×10^−06) BrdU+ cells/mm^3
OC(CN1c2ccccc2CCc2ccccc21)Cn1c2ccccc2c2ccccc21 (centres unmarked) [P7C3-S133, 1-(9H-carbazol-9-yl)-3-(10,11-dihydro-5H-dibenzo[b,f]azepin-5-yl)propan-2-ol] | 20.2 (×10^−06) BrdU+ cells/mm^3
OC(CSc1ccccc1)CN1c2ccccc2CCc2ccccc21 (centres unmarked) [P7C3-S134, 1-(10,11-dihydro-5H-dibenzo[b,f]azepin-5-yl)-3-(phenylthio)propan-2-ol] | 19.4 (×10^−06) BrdU+ cells/mm^3
OC(COc1ccccc1)CN1c2ccccc2CCc2ccccc21 (centres unmarked) [P7C3-S135, 1-(10,11-dihydro-5H-dibenzo[b,f]azepin-5-yl)-3-phenoxypropan-2-ol] | 14.2 (×10^−06) BrdU+ cells/mm^3
CN(C)CC(O)CN1c2ccccc2CCc2ccccc21 (centres unmarked) [P7C3-S139, 1-(10,11-dihydro-5H-dibenzo[b,f]azepin-5-yl)-3-(dimethylamino)propan-2-ol] | 24.9 (×10^−06) BrdU+ cells/mm^3
NCC(O)CN1c2ccccc2CCc2ccccc21 (centres unmarked) [P7C3-S140, 1-amino-3-(10,11-dihydro-5H-dibenzo[b,f]azepin-5-yl)propan-2-ol] | 23.4 (×10^−06) BrdU+ cells/mm^3
CNCC(O)CN1c2ccccc2CCc2ccccc21 (centres unmarked) [P7C3-S143, 1-(10,11-dihydro-5H-dibenzo[b,f]azepin-5-yl)-3-(methylamino)propan-2-ol] | 14.5 (×10^−06) BrdU+ cells/mm^3
CC(C)NCC(O)CN1c2ccccc2CCc2ccccc21 (centres unmarked) [P7C3-S144, 1-(10,11-dihydro-5H-dibenzo[b,f]azepin-5-yl)-3-(isopropylamino)propan-2-ol] | 18.1 (×10^−06) BrdU+ cells/mm^3
CC(C)(C)NCC(O)CN1c2ccccc2CCc2ccccc21 (centres unmarked) [P7C3-S145, 1-(tert-butylamino)-3-(10,11-dihydro-5H-dibenzo[b,f]azepin-5-yl)propan-2-ol] | 25 (×10^−06) BrdU+ cells/mm^3
CN(C)CC(F)CN1c2ccccc2CCc2ccccc21 (centres unmarked) [P7C3-S148, 3-(10,11-dihydro-5H-dibenzo[b,f]azepin-5-yl)-2-fluoro-N,N-dimethylpropan-1-amine] | 22.6 (×10^−06) BrdU+ cells/mm^3
CN(C)C(CF)CN1c2ccccc2CCc2ccccc21 (centres unmarked) [P7C3-S149, 1-(10,11-dihydro-5H-dibenzo[b,f]azepin-5-yl)-3-fluoro-N,N-dimethylpropan-2-amine] | 23.2 (×10^−06) BrdU+ cells/mm^3
CNCC(F)CN1c2ccccc2CCc2ccccc21 (centres unmarked) [P7C3-S152, 3-(10,11-dihydro-5H-dibenzo[b,f]azepin-5-yl)-2-fluoro-N-methylpropan-1-amine] | 26.8 (×10^−06) BrdU+ cells/mm^3
COc1cccc(NCC(O)CN2c3ccccc3CCc3ccccc32)c1 (centres unmarked) [P7C3-S158, 1-(10,11-dihydro-5H-dibenzo[b,f]azepin-5-yl)-3-((3-methoxyphenyl)amino)propan-2-ol] | 25 (×10^−06) BrdU+ cells/mm^3
Brc1ccc2[nH]c3ccc(Br)cc3c2c1 [P7C3-S162, 3,6-dibromo-9H-carbazole] | 25.2 (×10^−06) BrdU+ cells/mm^3
Cn1c2ccc(Br)cc2c2cc(Br)ccc21 [P7C3-S163, 3,6-dibromo-9-methyl-9H-carbazole] | 24.2 (×10^−06) BrdU+ cells/mm^3
CC(C)(O)Cn1c2ccc(Br)cc2c2cc(Br)ccc21 [P7C3-S169, 1-(3,6-dibromo-9H-carbazol-9-yl)-2-methylpropan-2-ol] | 18.4 (×10^−06) BrdU+ cells/mm^3
OC(CN1c2ccccc2CCc2ccccc21)CN1c2ccccc2CCc2ccccc21 [P7C3-S170, 1,3-bis(10,11-dihydro-5H-dibenzo[b,f]azepin-5-yl)propan-2-ol] | 22.4 (×10^−06) BrdU+ cells/mm^3
OCCn1c2ccc(Br)cc2c2cc(Br)ccc21 [P7C3-S171, 2-(3,6-dibromo-9H-carbazol-9-yl)ethanol] | 26.2 (×10^−06) BrdU+ cells/mm^3
OC(CNc1cccc2ccccc12)Cn1c(-c2ccccc2)cc2ccccc21 (centres unmarked) [P7C3-S185, 1-(naphthalen-1-ylamino)-3-(2-phenyl-1H-indol-1-yl)propan-2-ol] | 25.1 (×10^−06) BrdU+ cells/mm^3

SMILES | (×10^−06) BrdU+ cells/mm^3 dentate gyrus
[N-]=[N+]=NCC(F)Cn1c2ccc(Br)cc2c2cc(Br)ccc21 (centres unmarked) [P7C3-S189, 9-(3-azido-2-fluoropropyl)-3,6-dibromo-9H-carbazole] | 13.7 (×10^−06) BrdU+ cells/mm^3
COc1ccc2[nH]cc(CCNC(C)=O)c2c1 [P7C3-S193, Melatonin, reference compound] | 15.6 (×10^−06) BrdU+ cells/mm^3
CCOC(=O)C1=C[C@]2(CC)CCCN3CCc4c(n1c1ccccc41)[C@@H]32 [P7C3-S199, Vinpocetine, reference compound] | 26.5 (×10^−06) BrdU+ cells/mm^3
CCC(C)N(C)C(=O)c1cc2ccccc2c(-c2ccccc2Cl)n1 (centres unmarked) [P7C3-S200, PK 11195, reference compound] | 22.1 (×10^−06) BrdU+ cells/mm^3
CCCCCCN(CCCCCC)C(=O)Cc1c(-c2ccc(F)cc2)[nH]c2ccccc12 [P7C3-S201, N,N-Dihexyl-2-(4-fluorophenyl)indole-3-acetamide, reference compound] | 24.8 (×10^−06) BrdU+ cells/mm^3
CN1C(=O)CN=C(c2ccc(Cl)cc2)c2cc(Cl)ccc21 [P7C3-S203, 4′-chlorodiazepam, reference compound] | 21.5 (×10^−06) BrdU+ cells/mm^3
O=C(O)c1cc2c(cn1)[nH]c1ccc(Br)cc12 [P7C3-S206, 6-bromo-9H-pyrido[3,4-b]indole-3-carboxylic acid] | 29.6 (×10^−06) BrdU+ cells/mm^3
COc1ccc2[nH]c3ccc(Br)cc3c2c1 [P7C3-S209, 3-bromo-6-methoxy-9H-carbazole] | 30 (×10^−06) BrdU+ cells/mm^3
O=C(O)CN1c2ccccc2CCc2ccccc21 [P7C3-S210, 2-(10,11-dihydro-5H-dibenzo[b,f]azepin-5-yl)acetic acid] | 21.4 (×10^−06) BrdU+ cells/mm^3
CC(C(=O)O)n1c2ccc(Br)cc2c2cc(Br)ccc21 (centres unmarked) [P7C3-S211, 2-(3,6-dibromo-9H-carbazol-9-yl)propanoic acid] | 23 (×10^−06) BrdU+ cells/mm^3
c1ccc2c(c1)CCc1ccccc1N2 [P7C3-S212, iminodibenzyl, reference compound] | 20.5 (×10^−06) BrdU+ cells/mm^3
N#Cc1ccc2[nH]c3ccc(Br)cc3c2c1 [P7C3-S216, 6-bromo-9H-carbazole-3-carbonitrile] | 25.9 (×10^−06) BrdU+ cells/mm^3
N#Cc1[nH]c2ccc(Br)cc2c1N [P7C3-S222, 3-amino-5-bromo-1H-indole-2-carbonitrile] | 30.1 (×10^−06) BrdU+ cells/mm^3
N#Cc1ccc2c(c1)c1cc(Br)ccc1n2CC(=O)O [P7C3-S224, 2-(3-bromo-6-cyano-9H-carbazol-9-yl)acetic acid] | 20.2 (×10^−06) BrdU+ cells/mm^3
O=C(O)c1ccc2[nH]c3ccc(Br)cc3c2c1 [P7C3-S225, 6-bromo-9H-carbazole-3-carboxylic acid] | 30.4 (×10^−06) BrdU+ cells/mm^3
O=C(O)Cn1c2ccc(Br)cc2c2cc(C(=O)O)ncc21 [P7C3-S227, 6-bromo-9-(carboxymethyl)-9H-pyrido[3,4-b]indole-3-carboxylic acid] | 25.8 (×10^−06) BrdU+ cells/mm^3
Cc1ccc2[nH]c3ccc(Br)cc3c2c1 [P7C3-S228, 3-bromo-6-methyl-9H-carbazole] | 40.3 (×10^−06) BrdU+ cells/mm^3
O=C(Cn1c2ccc(Br)cc2c2cc(Br)ccc21)NS(=O)(=O)c1ccccc1 [P7C3-S230, 2-(3,6-dibromo-9H-carbazol-9-yl)-N-(phenylsulfonyl)acetamide] | 30.5 (×10^−06) BrdU+ cells/mm^3
O=C(Cn1c2ccc(Br)cc2c2cc(Br)ccc21)NO [P7C3-S231, 2-(3,6-dibromo-9H-carbazol-9-yl)-N-hydroxyacetamide] | 26.1 (×10^−06) BrdU+ cells/mm^3
CS(=O)(=O)NC(=O)Cn1c2ccc(Br)cc2c2cc(Br)ccc21 [P7C3-S232, 2-(3,6-dibromo-9H-carbazol-9-yl)-N-(methylsulfonyl)acetamide] | 16.8 (×10^−06) BrdU+ cells/mm^3
